The target of assay [1] is T1, HDMX (Homo sapiens, UniProt O15151).
T1 sequence (O15151 1-490): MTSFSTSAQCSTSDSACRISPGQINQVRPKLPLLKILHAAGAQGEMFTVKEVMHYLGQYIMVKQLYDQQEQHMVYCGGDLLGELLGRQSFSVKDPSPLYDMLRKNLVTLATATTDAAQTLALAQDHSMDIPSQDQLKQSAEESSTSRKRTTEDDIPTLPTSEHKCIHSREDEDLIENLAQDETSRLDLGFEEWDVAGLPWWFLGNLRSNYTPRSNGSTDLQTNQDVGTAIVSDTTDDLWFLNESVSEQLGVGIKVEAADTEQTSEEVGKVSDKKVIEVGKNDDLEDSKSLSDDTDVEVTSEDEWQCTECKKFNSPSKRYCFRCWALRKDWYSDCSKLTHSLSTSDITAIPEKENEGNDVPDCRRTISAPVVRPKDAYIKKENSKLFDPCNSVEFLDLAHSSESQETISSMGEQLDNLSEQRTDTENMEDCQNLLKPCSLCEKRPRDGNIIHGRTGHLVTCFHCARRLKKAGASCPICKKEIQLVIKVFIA
Put plainly: Surface plasmon resonance binding to immobilized recombinant HDMX. The following applies: doses up to 12.5 μM.

The target of assay [2] is T1, HDMX. The experiment in a line: Spectral (absorbance) studies after size exclusion chromatography with HDMX. The following applies: absorbance pattern after removal of free compound. It is filed as binding.
For another assay, the target named is T2, GST-HDMX (Homo sapiens, UniProt O15151).
T2 sequence (O15151 1-490): T1 sequence (O15151 1-490)
The following applies: immunoprecipitation / streptavidin pull-down.

For assay [3], the system named is HCT116 p53-wild-type cells. The experiment in a line: Cell cycle analysis by PI staining, HCT116 p53-wild-type cells. It is filed as cell-based. The following applies: after 24 hr of treatment with CTX1 (2 μM); decrease from 20%.
The subject of assay [4] is HCT116 p53-null cells. Put plainly: Annexin-V staining for apoptosis, HCT116 p53-null cells. It is filed as cell-based. Conditions: combination of CTX1 (3 μM) and nutlin-3 (5 μM), 72 hr.
The next assay concerns MCF7 cells. Conditions: CTX1 3 μM.
Assay [5] has as its system HCT116 p53-null cells. Put plainly: Cell cycle analysis by PI staining, HCT116 p53-null cells. The following applies: after 24 hr of treatment with CTX1 (2 μM); reduction from 25%. It counts as cell-based.
Another assay concerns primary human AML cells. The experiment in a line: Survival of NSG mice injected with primary human AML cells. It is filed as in vivo.
Another assay deals with HDM2/p53 (Homo sapiens, UniProt Q00987). The experiment in a line: ELISA of recombinant HDM2/p53 interaction. It is filed as biochemical.
Assay [6] has as its system HCT116 p53-wild type cells. The experiment in a line: Annexin-V staining for apoptosis, HCT116 p53-wild type cells. It counts as cell-based. The following applies: combination of CTX1 (3 μM) and nutlin-3 (5 μM), 72 hr.
For the next assay, the system named is IMR90 cells. Put plainly: Cell death (trypan blue) in IMR90 fibroblast model with HDMX, HDM2 or shp53. Conditions: 72 hr. It counts as cell-based.
Another assay has as its system GST-FXR. It is filed as binding. Conditions: immunoprecipitation / streptavidin pull-down.
In a further assay the test system is OCI cell line. Put plainly: IC50 / cell killing activity on OCI cell line. It counts as cell-based.
Another assay addresses T3, HDMX/p53 (Homo sapiens, UniProt O15151).
T3 sequence (O15151 1-490): T1 sequence (O15151 1-490)
The experiment in a line: ELISA of recombinant HDMX/p53 interaction. It counts as biochemical.

Another assay addresses T4, P53-HDMX (Homo sapiens, UniProt O15151).
T4 sequence (O15151 1-490): T1 sequence (O15151 1-490)
The experiment in a line: Co-immunoprecipitation of P53 and HDMX. It is filed as biochemical. The following applies: compared to DMSO and Nutlin.

Assay [7] deals with OCI-AML3 (OCI) cells overexpressing HDMX. Put plainly: Cell killing of OCI cells overexpressing HDMX versus parental cells. It counts as cell-based. Conditions: 72 hr trypan blue.

The structures appear in SMILES notation. Where two headings read alike, the source gives them in different places.

Sequence of HDM2/p53 (Q00987 whole entry): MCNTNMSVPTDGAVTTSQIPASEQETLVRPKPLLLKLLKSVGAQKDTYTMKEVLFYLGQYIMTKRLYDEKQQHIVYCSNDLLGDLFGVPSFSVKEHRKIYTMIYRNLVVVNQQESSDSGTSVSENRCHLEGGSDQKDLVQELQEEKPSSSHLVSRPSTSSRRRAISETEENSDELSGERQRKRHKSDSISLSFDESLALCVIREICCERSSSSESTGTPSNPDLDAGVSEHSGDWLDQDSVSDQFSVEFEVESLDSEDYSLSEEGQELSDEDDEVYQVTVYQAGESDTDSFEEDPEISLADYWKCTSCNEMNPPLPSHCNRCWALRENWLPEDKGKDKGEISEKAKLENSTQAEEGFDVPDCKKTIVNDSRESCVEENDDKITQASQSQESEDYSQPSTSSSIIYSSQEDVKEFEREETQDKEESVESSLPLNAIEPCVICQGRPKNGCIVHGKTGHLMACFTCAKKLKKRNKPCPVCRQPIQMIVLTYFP

Turning to `Nc1c2ccccc2nc2ccccc12` [9-AA, 9-aminoacridine], at HDMX [1], the “binding to HDMX using SPR” value is listed as “did not demonstrate any binding”. Moreover, at HDMX [2], the “binding to HDMX by spectral studies” value is “not observed”.

With `O=C(O)CCCC[C@@H]1SC[C@@H]2NC(=O)N[C@@H]21` [Biotin], on GST-HDMX, the “direct interaction with GST-HDMX” value is “not to bind with HDMX”.

Regarding `N#Cc1c2ccc(N)cc2nc2cc(N)ccc12` [CTX1], the values for the S phase (in assay [3]; in the assay on HCT116 p53-null cells [5]) were 4% and 15%, respectively. The induction of apoptosis entry was “not p53-null cells” in the assay with HCT116 p53-null cells [4] and “synergistic induction of apoptosis” in [6]. Also, in the assay with MCF7 cells, the p53 induction entry is “induces p53 rapidly”. Also, the survival time result in the assay on primary human AML cells (CTX1 (30 mg/kg i.p.) in combination with nutlin-3 (200 mg/kg p.o.)) is on record as “significantly increased survival time”. Further, the survival of mice entry in the assay with primary human AML cells (single agent, 30 mg/kg i.p.) is on record as “significantly enhanced the survival”. Moreover, the “disruption of HDM2/p53 interaction” value on HDM2/p53 is listed as “not HDM2/p53”. The cell death entry is given as “induced significant p53-dependent cell death” in the assay with IMR90 cells (HDMX-expressing cells (Vector or HDMX), 1, 2.5 and 5 μM); “not cells in which p53 is inactivated by HDM2 overexpression” in the assay with IMR90 cells (cells with HDM2 overexpression or p53 knocked down by shRNA). Moreover, the “direct interaction with GST-FXR” value in the assay on GST-FXR is “not unrelated proteins such as GST-FXR”.

As to `O=[N+]([O-])c1ccc2c(Cl)c3ccc([N+](=O)[O-])cc3nc2c1` [INVA3Z-1-1], the IC50 in the assay with OCI cell line is 13.5 µM.

For `Nc1ccc(Nc2c3ccccc3nc3ccccc23)cc1` [INVA3Z-5-2], in the assay on OCI cell line (OCI cell line, read-out: IC 50), the IC50 was determined as 4.7 µM.

As for `N#Cc1c2ccc([N+](=O)[O-])cc2nc2cc([N+](=O)[O-])ccc12` [INVA3Z-6-1], the IC50 with OCI cell line turned out to be 14.1 µM.

Turning to `N#Cc1c2ccccc2nc2ccccc12` [INVA3Z-6-3], the IC50 in the assay with OCI cell line (OCI cell line, read-out: IC 50) worked out at 13.4 µM.

As for `O=S(=O)(CCCOCc1ccccc1)Nc1ccc(Nc2c3ccccc3nc3ccccc23)cc1` [INVA3Z-10-1], the IC50 in the assay on OCI cell line (OCI cell line, read-out: IC 50) was determined as 9.8 µM.

Consider `[N-]=[N+]=NCCCS(=O)(=O)Nc1ccc(Nc2c3ccccc3nc3ccccc23)cc1` [INVA3Z-13-1], for which, in the assay on OCI cell line (OCI cell line, read-out: IC 50), the IC50 is 9.9 µM.

Regarding `O=C(CCl)Nc1c2ccccc2nc2ccccc12` [INVA3Z-17-2], the IC50 in the assay with OCI cell line (OCI cell line, read-out: IC 50) was 13.6 µM.

With `OCCNc1ccc(Nc2c3ccccc3nc3ccccc23)cc1` [INVA3Z-19-1], the IC50 in the assay with OCI cell line (OCI cell line, read-out: IC 50) stood at 5.8 µM.

In the case of `O=[N+]([O-])c1ccc2c(Cl)c3ccccc3nc2c1` [INVA3Z-28-1], the IC50 in the assay on OCI cell line (OCI cell line, read-out: IC 50) came out at 7.8 µM.

For `ClCCN(CCCl)c1c2ccccc2nc2ccccc12` [INVA3Z-29-1], the IC50 with OCI cell line was greater than 8 µM.

Turning to `N#Cc1ccc(Nc2c3ccccc3nc3ccccc23)cc1` [INVA3Z-29-2], in the assay with OCI cell line (OCI cell line, read-out: IC 50), the IC50 was greater than 8 µM.

Consider `O=C(CCCCC1SCC2NC(=O)NC21)Nc1ccc(Nc2c3ccccc3nc3ccccc23)cc1` (centres unmarked) [INVA3Z-31-1], for which the IC50 with OCI cell line (read-out: IC 50) is 11.9 µM.

With `Nc1ccc(Nc2c3ccccc3nc3cc([N+](=O)[O-])ccc23)cc1` [INVA3Z-32-1], in the assay on OCI cell line (OCI cell line, read-out: IC 50), the IC50 came to 4.8 µM.

As to `Nc1ccc(Nc2c3ccccc3nc3cc(N)ccc23)cc1` [INVA3Z-32-2], the IC50 in the assay on OCI cell line (OCI cell line, read-out: IC 50) is 4.7 µM.

Regarding `CC(=O)Nc1ccc(Nc2c3ccccc3nc3ccccc23)cc1` [INVA3Z-36-1], the IC50 in the assay with OCI cell line (OCI cell line, read-out: IC 50) was 4.9 µM.

As to `Nc1cccc(Nc2c3ccccc3nc3ccccc23)c1` [INVA3Z-38-1], in the assay with OCI cell line (OCI cell line, read-out: IC 50), the IC50 worked out at 11.8 µM.

Turning to `CC(=O)Nc1cccc(Nc2c3ccccc3nc3ccccc23)c1` [INVA3Z-39-1], the IC50 with OCI cell line (OCI cell line, read-out: IC 50) came out at 12.1 µM.

In the case of `CC(=O)Nc1ccc2c(Cl)c3ccccc3nc2c1` [INVA3Z-40-1], the IC50 with OCI cell line (OCI cell line, read-out: IC 50) was 13.2 µM.

For `CC(=O)Nc1ccc2c(Nc3ccc(N)cc3)c3ccccc3nc2c1` [INVA3Z-40-2], the IC50 in the assay on OCI cell line (OCI cell line, read-out: IC 50) was determined as 13.9 µM.

On to `[O-][n+]1c2ccccc2c(Cl)c2ccccc21` [INVA3Z-41-1], for which the IC50 in the assay with OCI cell line (OCI cell line, read-out: IC 50) is greater than 15 µM.

On to `Nc1ccc(Nc2c3ccccc3[n+]([O-])c3ccccc23)cc1` [INVA3Z-41-2], for which the IC50 in the assay with OCI cell line (OCI cell line, read-out: IC 50) was 14.3 µM.

As for `Nc1ccc(Nc2c3ccc([N+](=O)[O-])cc3nc3cc([N+](=O)[O-])ccc23)cc1` [INVA3Z-42-1], the IC50 in the assay on OCI cell line (read-out: IC 50) came out at 0.13 µM.

In the case of `Nc1ccc2cc3ccc(N)c(I)c3nc2c1` [INVA3Z-46-2], in the assay with OCI cell line (OCI cell line, read-out: IC 50), the IC50 amounted to 7.9 µM.

Consider `O=C(CCCCC1SCC2NC(=O)NC21)Nc1ccc(Nc2c3ccc([N+](=O)[O-])cc3nc3cc([N+](=O)[O-])ccc23)cc1` (centres unmarked) [INVA3Z-48-2], for which, in the assay with OCI cell line, the IC50 came out at 8.2 µM.

Regarding `CC(=O)Nc1ccc(Nc2c3ccc([N+](=O)[O-])cc3nc3cc([N+](=O)[O-])ccc23)cc1` [INVA3Z-50-2], the “disruption of HDMX/p53 interaction” value on HDMX/p53 is listed as “Identical results were obtained”. In addition, the “disruption of P53-HDMX protein interaction” value at P53-HDMX was “disrupts”. Also, the IC50 with OCI cell line is 1.4 µM. Further, the “disruption of HDM2/p53 interaction” value on HDM2/p53 is “Identical results were obtained”.

Turning to `Nc1ccc2cc3ccc(N)c(-c4ccccc4)c3nc2c1-c1ccccc1` [INVA3Z-52-2], in the assay on OCI cell line (OCI cell line, read-out: IC 50), the IC50 is 3.4 µM.

In the case of `Nc1ccc2cc3ccc(N)c(-c4ccccc4)c3nc2c1I` [INVA3Z-52-3], the IC50 in the assay on OCI cell line (OCI cell line, read-out: IC 50) is 7.8 µM.

Take `[N-]=[N+]=Nc1c2ccccc2nc2ccccc12` [INVA3Z-55-1]: the IC50 in the assay on OCI cell line (OCI cell line, read-out: IC 50) was 3.2 µM.

`O=[N+]([O-])c1ccc2c(Cl)c3cc([N+](=O)[O-])ccc3nc2c1` [INVA3Z-58-1] yielded an IC50 in the assay on OCI cell line greater than 15 µM.

As to `Nc1ccc(Nc2c3ccccc3nc3ccccc23)c(N)c1` [INVA3Z-61-2], the IC50 with OCI cell line (OCI cell line, read-out: IC 50) stood at 4.3 µM.

Compound `Cc1c([N+](=O)[O-])ccc2c(Cl)c3ccc([N+](=O)[O-])cc3nc12` [INVA3Z-63-1] returned an IC50 with OCI cell line greater than 15 µM.

In turn, `Cc1c([N+](=O)[O-])ccc2c(Nc3ccc(N)cc3)c3ccc([N+](=O)[O-])cc3nc12` [INVA3Z-63-2] showed an IC50 in the assay on OCI cell line greater than 15 µM.

As for `Cc1ccc2nc3cc([N+](=O)[O-])ccc3c(Nc3ccc(N)cc3)c2c1[N+](=O)[O-]` [INVA3Z-65-2], in the assay with OCI cell line, the IC50 was 11.5 µM.

Consider `Nc1ccc(Nc2c3ccc([N+](=O)[O-])cc3nc3cc([N+](=O)[O-])ccc23)cc1N` [INVA3Z-66-1], for which the IC50 in the assay on OCI cell line was greater than 15 µM.

Turning to `Nc1ccn([C@@H]2O[C@H](CO)[C@@H](O)[C@@H]2O)c(=O)n1` [cytarabine, reference compound], the “efficacy in this model system” value with primary human AML cells (standard AML therapeutic) is “does not demonstrate efficacy”.

Take `COc1ccc(C2=N[C@@H](c3ccc(Cl)cc3)[C@@H](c3ccc(Cl)cc3)N2C(=O)N2CCNC(=O)C2)c(OC(C)C)c1` [nutlin-3]: in assay [7], the “sensitivity to cell killing versus parental cells” value was “reduced activity”.

For the origin of these results see patent US10183912B2, “HDMX inhibitors and their use for cancer treatment” (priority 2014, dated 2019).
